{"source": "patent US6956030B2", "about": "“Use of mometasone furoate for treating upper airway diseases” (Schering Corporation, priority 1994, dated 2005)", "key": {"[1]": {"test_system": "plasma cortisol", "test": "Phase I rising single-dose study, aqueous nasal spray suspension, 24-hour plasma cortisol", "type": "in vivo, healthy male volunteers", "conditions": "intranasal single doses 1000, 2000 and 4000 mcg at 11 pm", "procedure": "Several Phase I studies have been completed using the aqueous nasal spray suspension formulation of mometasone furoate monohydrate. In a randomized, third party-blinded, placebo-controlled rising single-dose safety and tolerance study, the aqueous nasal spray suspension formulation was administered to eight healthy male volunteers. Doses were administered at 11 pm, and plasma cortisol concentrations were measured during the following 24-hour period."}, "[2]": {"test_system": "patients with mild asthma"}, "[3]": {"test_system": "cortisol secretion", "test": "Multiple dose 28-day study, aqueous nasal spray, cortisol secretion", "type": "in vivo, normal male volunteers", "conditions": "intranasal 400 or 1600 mcg/day, 28 days", "source_text": "In a follow-up multiple dose study, 48 normal male volunteers were empaneled in a randomized, third party-blinded, placebo and active-controlled parallel group study. Twelve volunteers in each of four groups received one of the following treatments for 28 days: A) Intranasal aqueous nasal spray suspension formulation of mometasone furoate monohydrate, 400 mcg/day; B) Intranasal aqueous nasal spray suspension formulation of mometasone furoate monohydrate, 1600 mcg/day; C) Intranasal placebo; D) Oral prednisone, 10 mg/day. All treatments were administered as once daily dosing in the morning."}, "[4]": {"test": "Aqueous suspension once-a-day in allergic rhinitis (summary statement)", "type": "in vivo", "source_text": "In treating allergic and non-allergic rhinitis, the aqueous suspension of mometasone furoate may be administered intranasally by inserting an appropriate device (such as the pump spray bottle used to deliver […]® Nasal Spray as well as the spray bottle disclosed in the Schering Corporation Industrial Design Deposit DM/026304 registered Jun. 1, 1993) into each nostril. Active drug is then expelled (nasal spray device) or could be nasally inhaled (sniffed) as a powder. Efficacy is generally assessed in a double blind fashion by a reduction in nasal symptoms (e.g., sneezing, itching, congestion, and discharge). Other objective measurements (e.g., nasal peak flow and resistance) can be used as supportive indices of efficacy. For treatment of allergic and/or inflammatory diseases of the lower airways and lung parenchyma especially diseases such as asthma, chronic obstructive pulmonary disease (“COPD”), granulomatus diseases of the lungs and lower airway passage, non-malignant proliferative disease of the lungs e.g., idiopathic pulmonary fibrosis, hypersensitivity pneumonitis and bronchopulmonary dysplasia the following dosage ranges of mometasone furoate may be used: […] Typically 2-4 mL of the aqueous suspension of mometasone furoate monohydrate may be placed in a plastic nebulizer container and the patient would inhale for 2-10 minutes."}, "[5]": {"test": "HPLC/radio-flow metabolite profiling of plasma, urine and fecal extracts after ^3H-MF", "type": "in vivo, normal healthy male volunteers", "source_text": "The substantial minimization of the systemic effect of mometasone furoate administered intranasally or by oral inhalation has been measured by High Performance Liquid Chromatography (HPLC) metabolite profiling of plasma radioactivity of mometasone furoate, its substantially complete (>98%) first-pass metabolism in the liver and by a minimal reduction in cortisol secretion levels.\nPlasma, urine, expired air filters, Respirgard and fecal samples were collected and assayed for radioactivity content. The limit of quantitation (LOQ) for plasma radioactivity ranged from 0.103 to 0.138 ng eq/ml., except for the nasal spray treatment where the LOQ was 0.025 ng eq/ml. Selected plasma, urine and fecal samples were analyzed for metabolite profiles.\nSelected plasma, urine and fecal extracts were analyzed by high performance liquid chromatography (HPLC) with radio-flow monitoring to determine metabolite profiles. […] Approximately 1.5% of the 3 hr. plasma radioactivity was associated with parent drug indicating extensive first past metabolism and rapid inactivation by the liver. In contrast, following intravenous administration, approximately 39% of the 3 hr. plasma radioactivity was associated with parent drug. Approximately 12% and 33% of the 3 hr. plasma radioactivity was associated with parent drug following administration of the MDI and Gentlehaler, respectively. In general, the plasma concentrations of radioactivity following the nasal and oral suspension routes of administration were too low for metabolite profiling.\nHydrolysis of plasma and urine was performed with an enzyme preparation containing both β-glucuronidase and aryl sulfatase. These experiments yielded modest changes in the HPLC metabolite profiles that were consistent with the hydrolytic release of conjugated metabolites."}}, "note": "Where two headings read alike, the source gives them in different places."}
{"smiles": "C[C@@H]1C[C@H]2[C@@H]3CCC4=CC(=O)C=C[C@]4(C)[C@@]3(Cl)[C@@H](O)C[C@]2(C)[C@@]1(OC(=O)c1ccco1)C(=O)CCl", "note": "[mometasone furoate]", "values": [{"measurement": "effect on 24-hour area under the curve plasma cortisol profile (AUC 0-24) compared to placebo", "setting": "[1]", "value": "did not significantly affect"}, {"measurement": "FEV1 compared to placebo", "setting": "[2]; 1 mg/day group, day 1", "value": "statistically significant, clinically meaningful improvement"}, {"measurement": "mean increase in FEV1 versus placebo", "setting": "[2]; 1, 2 and 4 mg/day groups, every time point day 3 to day 28", "value": "statistically significantly greater than for the placebo group"}, {"measurement": "8 a.m. plasma cortisol", "setting": "[2]; 1000 mcg or 2000 mcg daily, statistically significant compared to placebo", "value": "small decreases from Baseline on Days 15 and 21"}, {"measurement": "8 a.m. plasma cortisol", "setting": "[2]; 4000 mcg daily, statistically different from placebo Day 3 through Day 28", "value": "greater decreases in plasma cortisol"}, {"measurement": "increase in FEV1 from Baseline", "setting": "[2]; at a majority of time points", "value": "≥ 15", "unit": "%"}, {"measurement": "response to ACTH infusion at post-treatment (Day 30)", "setting": "[2]; in vivo", "value": "significant increases from Baseline in plasma cortisol"}, {"measurement": "pulmonary function measured by FEV1", "setting": "[2]; three treated groups, MDI twice daily", "value": "clinically meaningful increases in pulmonary function"}, {"measurement": "cortisol secretion compared to placebo", "setting": "[3]", "value": "Neither of the 2 doses of the mometasone furoate aqueous nasal spray formulation were associated with any changes in cortisol secretion"}, {"measurement": "tolerability", "setting": "[3]", "value": "well tolerated"}, {"measurement": "safety and efficacy in allergic rhinitis", "setting": "[4]; 25 up to 1600 micrograms once-a-day", "value": "safe and effective"}, {"measurement": "dose dependence of treatment effect", "setting": "[4]; once-a-day", "value": "no improvement in treatment is typically found above 400 micrograms a day"}, {"measurement": "extent of metabolism", "setting": "[5]; all routes of administration", "value": "extensively metabolized"}, {"measurement": "first-pass metabolism in the liver", "setting": "[5]; in vivo", "value": "> 98", "unit": "%"}, {"measurement": "detection of parent drug in plasma by metabolite profiling", "setting": "[5]; intravenous injection or oral solution, not after oral or nasal suspensions", "value": "detectable in plasma by metabolite profiling"}, {"measurement": "bioavailability", "setting": "[5]; male, human, plasma, 1.03 mg/Subject, oral solution, extensive first pass metabolism, read-out: absolute bioavailability of unchanged mometasone furoate", "value": "< 1", "unit": "%"}]}
